The values below come from patent US20240158446A1, “CYCLIC COMPOUND HAVING SELECTIVE INHIBITORY ACTION ON KRAS OVER HRAS AND NRAS” (CHUGAI SEIYAKU KABUSHIKI KAISHA, priority 2021, published 2024).

Where a SMILES comes first, the peptide text is derived from it. Bridges are numbered along the chain shown (N, C = ends). [ ]: non-standard residue; d: D form. The star is where a group is joined. hPhe(3-Cl-4-CF3) = N[C@@H](CCc1ccc(C(F)(F)F)c(Cl)c1)C(=O)O; NPrPhe(4-CF3) = CCCN[C@@H](Cc1ccc(C(F)(F)F)cc1)C(=O)O; NMeGly(cPent) = CN[C@H](C(=O)O)C1CCCC1; NMeD = CN[C@@H](CC(=O)O)C(=O)O; NMeL = CN[C@@H](CC(C)C)C(=O)O; Pip = O=C(O)[C@@H]1CCCCN1; Morpholide = C1CN(*)CCO1; Ac5c = NC1(C(=O)O)CCCC1; Aze = O=C(O)[C@@H]1CCN1; Ac4c = NC1(C(=O)O)CCC1; Sar = CNCC(=O)O

As usually defined, the IC50 is the concentration that inhibits the measured activity by half. Read a high IC50 as weaker potency.

Experiment [1] relates to human lung cancer strain NCI-H441.
The target in experiment [2] is GDP-bound HRAS wild-type protein (Homo sapiens, UniProt P01112). Description: Binding to HRAS by surface plasmon resonance (SPR), Single Cycle Kinetics. The following applies: for HRAS/KRAS (ratio of KD value with respect to GDP-bound HRAS wild-type protein to KD value with respect to KRAS): SPR KD ratio HRAS/KRAS, class symbols; for HRAS/KRAS (ratio of KD value for HRAS to KD value for KRAS) / HRAS/KRAS (ratio of KD value with respect to HRAS to KD value with respect to KRAS): SPR, GDP-bound HRAS wild-type protein vs GDP-bound KRAS wild-type protein.

In experiment [3] the target is GDP-bound NRAS wild-type protein (Homo sapiens, UniProt P01111). Nature of the experiment: Binding to NRAS by surface plasmon resonance (SPR), Single Cycle Kinetics. The settings on record: for NRAS/KRAS (ratio of KD value with respect to GDP-bound NRAS wild-type protein to KD value with respect to KRAS): SPR KD ratio NRAS/KRAS, class symbols; for NRAS/KRAS (ratio of KD value for NRAS to KD value for KRAS) / NRAS/KRAS (ratio of KD value with respect to NRAS to KD value with respect to KRAS): SPR, GDP-bound NRAS wild-type protein vs GDP-bound KRAS wild-type protein. In general terms: Surface plasmon resonance follows binding to a sensor surface in real time, without labels.
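For IC50 in this document: cell proliferation inhibition after four days measured by CellTiter-Glo.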

Chain of GDP-bound NRAS wild-type protein (P01111 whole entry): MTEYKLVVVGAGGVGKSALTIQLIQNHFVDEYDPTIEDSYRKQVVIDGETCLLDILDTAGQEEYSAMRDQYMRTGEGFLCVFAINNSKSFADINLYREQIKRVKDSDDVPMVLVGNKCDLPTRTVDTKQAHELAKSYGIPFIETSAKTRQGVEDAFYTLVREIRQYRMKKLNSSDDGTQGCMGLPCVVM
Chain of GDP-bound HRAS wild-type protein (P01112 whole entry): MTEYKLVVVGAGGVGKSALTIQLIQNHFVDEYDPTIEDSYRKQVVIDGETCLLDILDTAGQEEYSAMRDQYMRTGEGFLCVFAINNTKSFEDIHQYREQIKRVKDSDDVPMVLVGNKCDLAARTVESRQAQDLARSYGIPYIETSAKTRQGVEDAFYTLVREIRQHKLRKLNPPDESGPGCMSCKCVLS

In the case of `CCCC[C@H]1C(=O)N[C@@H]([C@@H](C)CC)C(=O)N(C)CC(=O)N(C)[C@H]2C/C=C\CCN(C2=O)[C@@H](Cc2ccc(C)cc2)C(=O)N(C)CC(=O)N[C@@H](CCc2cc(F)c(C(F)(F)F)c(F)c2)C(=O)N2C[C@H](OCC)C[C@H]2C(=O)NC2(CC(C)(C)C2)C(=O)N(C)[C@@H](C2CCCC2)C(=O)N(C)[C@H](C(=O)N(C)C)CC(=O)N1C` [PP2800], in experiment [1], 7.9 nM corresponded to half-maximal inhibition (IC50). In experiment [2], the “HRAS/KRAS (ratio of KD value with respect to GDP-bound HRAS wild-type protein to KD value with respect to KRAS)” value was “A (a compound having 10 or more and less than 20 is denoted as A)”. Moreover, in experiment [3], the “NRAS/KRAS (ratio of KD value with respect to GDP-bound NRAS wild-type protein to KD value with respect to KRAS)” value was “A (a compound having 10 or more and less than 20 is denoted as A)”.

For `CCCN1C(=O)[C@@H]2CCN2C(=O)[C@@H]2CCCCN2C(=O)[C@H]([C@@H](C)CC)NC(=O)[C@H](CC(C)C)N(C)C(=O)C[C@@H](C(=O)N2CCOCC2)N(C)C(=O)[C@H](C2CCCC2)N(C)C(=O)C2(CCCC2)NC(=O)[C@@H]2CCCN2C(=O)[C@H](CCc2ccc(C(F)(F)F)c(Cl)c2)NC(=O)CN(C)C(=O)[C@@H]1Cc1ccc(C(F)(F)F)cc1` [PP0077] ([NMeL]I[Pip][Aze][NPrPhe(4-CF3)][Sar][hPhe(3-Cl-4-CF3)]P[Ac5c][NMeGly(cPent)][NMeD]-Morpholide; lactam N-11), the midpoint of inhibition in experiment [1], the IC50, lay at 5.3 nM. Besides, in experiment [2], the “HRAS/KRAS (ratio of KD value for HRAS to KD value for KRAS)” value was “B (a compound having 3 or more and less than 10 is denoted as B)”. Moreover, the “NRAS/KRAS (ratio of KD value for NRAS to KD value for KRAS)” value in experiment [3] is “C (A compound having a KD ratio of 0.1 or more and less than 3 is denoted as C)”.

Molecule `CC[C@H](C)[C@@H]1NC(=O)[C@H](CC(C)C)N(C)C(=O)C[C@@H](C(=O)N2CCOCC2)N(C)C(=O)[C@H](C2CCCC2)N(C)C(=O)C2(CCCC2)NC(=O)[C@@H]2CCCN2C(=O)[C@H](CCc2ccc(C(F)(F)F)c(Cl)c2)NC(=O)CN(C)C(=O)[C@H](Cc2ccc(F)cc2)N2CCCC[C@@H](C2=O)N(C)C(=O)CN(C)C1=O` [PP0530] registered an IC50 in experiment [1] of 7 nM. Besides, the “HRAS/KRAS (ratio of KD value with respect to HRAS to KD value with respect to KRAS)” value in experiment [2] was “B (a compound having 3 or more and less than 10 is denoted as B)”. Besides, the “NRAS/KRAS (ratio of KD value with respect to NRAS to KD value with respect to KRAS)” value in experiment [3] is “C (A compound having a KD ratio of 0.1 or more and less than 3 is denoted as C)”.

In turn, `CC[C@H](C)[C@@H]1NC(=O)[C@H](CC(C)C)N(C)C(=O)C[C@@H](C(=O)N(C)C)N(C)C(=O)[C@H](C2CCCC2)N(C)C(=O)C2(CCCC2)NC(=O)[C@@H]2CCCN2C(=O)[C@H](CCc2ccc(C(F)(F)F)c(Cl)c2)NC(=O)CN(C)C(=O)[C@H](Cc2ccc(C)cc2)N2CC/C=C(/C)C[C@@H](C2=O)N(C)C(=O)CN(C)C1=O` [PP0616] yielded a half-inhibitory concentration (IC50) in experiment [1] of 73.8 nM. Moreover, the “HRAS/KRAS (ratio of KD value with respect to HRAS to KD value with respect to KRAS)” value in experiment [2] is “B (a compound having 3 or more and less than 10 is denoted as B)”. Further, in experiment [3], the “NRAS/KRAS (ratio of KD value with respect to NRAS to KD value with respect to KRAS)” value is “B (a compound having 3 or more and less than 10 is denoted as B)”.

For the molecule `CCO[C@@H]1C[C@H]2C(=O)NC3(CCC3)C(=O)N(C)[C@@H](C3CCCC3)C(=O)N(C)[C@H](C(=O)N(C)C)CC(=O)N(C)[C@@H](CC)C(=O)N[C@@H]([C@@H](C)CC)C(=O)N(C)CC(=O)N(C)[C@H]3CCCCCN(C3=O)[C@@H](Cc3nccs3)C(=O)N(C)CC(=O)N[C@@H](CCc3cc(F)c(C(F)(F)F)c(F)c3)C(=O)N2C1` [PP0913], in experiment [1], the IC50 came out at 206 nM. Further, in experiment [2], the “HRAS/KRAS (ratio of KD value for HRAS to KD value for KRAS)” value was “B (a compound having 3 or more and less than 10 is denoted as B)”. Moreover, the “NRAS/KRAS (ratio of KD value for NRAS to KD value for KRAS)” value in experiment [3] is “B (a compound having 3 or more and less than 10 is denoted as B)”.

In the case of `CCC[C@H]1C(=O)N[C@@H]([C@@H](C)CC)C(=O)N(C)CC(=O)N(C)[C@H]2C/C=C\CCN(C2=O)[C@@H](Cc2ccc(C)cc2)C(=O)N(C)CC(=O)N[C@@H](CCc2cc(F)c(C(F)(F)F)c(F)c2)C(=O)N2C[C@H](OCC)C[C@H]2C(=O)NC2(CC(C)(C)C2)C(=O)N(C)[C@@H](C(CC)CC)C(=O)N(C)[C@H](C(=O)N(C)C)CC(=O)N1C` [PP2064], half-maximal inhibition in experiment [1] (IC50) was put at 13.6 nM. The “HRAS/KRAS (ratio of KD value for HRAS to KD value for KRAS)” value in experiment [2] was “A (a compound having 10 or more and less than 20 is denoted as A)”. Further, the “NRAS/KRAS (ratio of KD value for NRAS to KD value for KRAS)” value in experiment [3] was “A (a compound having 10 or more and less than 20 is denoted as A)”.

Regarding `CCO[C@@H]1C[C@H]2C(=O)NC3(CCC3)C(=O)N(C)[C@@H](C3CCCC3)C(=O)N(C)[C@H](C(=O)N3CCCC3)CC(=O)N(C)[C@@H](CC)C(=O)N[C@@H]([C@@H](C)CC)C(=O)N(C)CC(=O)N(C)[C@H]3C/C=C\CCN(C3=O)[C@@H](CC3CCC(F)(F)CC3)C(=O)N(C)CC(=O)N[C@@H](CCc3cc(F)c(C(F)(F)F)c(F)c3)C(=O)N2C1` [PP1442], the 50% inhibitory concentration (IC50) in experiment [1] came out at 48.3 nM. Moreover, the “HRAS/KRAS (ratio of KD value for HRAS to KD value for KRAS)” value in experiment [2] (KD ratio class) was “A (a compound having 10 or more and less than 20 is denoted as A)”. Further, the “NRAS/KRAS (ratio of KD value for NRAS to KD value for KRAS)” value in experiment [3] (KD ratio class) is “A (a compound having 10 or more and less than 20 is denoted as A)”.

On to `CC[C@H](C)[C@@H]1NC(=O)[C@H](CC(C)C)N(C)C(=O)C[C@@H](C(=O)N2CCOCC2)NC(=O)[C@H](C2CCCC2)N(C)C(=O)C2(CCCC2)NC(=O)[C@@H]2CCCN2C(=O)[C@H](CCc2cc(F)c(C(F)(F)F)c(F)c2)NC(=O)CN(C)C(=O)[C@H](Cc2ccc(C(F)(F)F)cc2)N2CCCC[C@@H](C2=O)N(C)C(=O)CN(C)C1=O` [PP0541], for which, in experiment [1], the IC50 was found to be 83.3 nM. The “HRAS/KRAS (ratio of KD value with respect to HRAS to KD value with respect to KRAS)” value in experiment [2] was “B (a compound having 3 or more and less than 10 is denoted as B)”. Also, the “NRAS/KRAS (ratio of KD value with respect to NRAS to KD value with respect to KRAS)” value in experiment [3] is “B (a compound having 3 or more and less than 10 is denoted as B)”.

On to `CCCN1C(=O)CN(C)C(=O)[C@@H]2CCN2C(=O)[C@H]([C@@H](C)CC)NC(=O)[C@H](CC(C)C)N(C)C(=O)C[C@@H](C(=O)N2CCOCC2)N(C)C(=O)[C@H](C2CCCC2)N(C)C(=O)C2(CCC2)NC(=O)[C@@H]2CCCN2C(=O)[C@H](CCc2ccc(C(F)(F)F)c(Cl)c2)NC(=O)CN(C)C(=O)[C@@H]1Cc1ccc(C(F)(F)F)cc1` [PP0402] ([NMeL]I[Aze][Sar][NPrPhe(4-CF3)][Sar][hPhe(3-Cl-4-CF3)]P[Ac4c][NMeGly(cPent)][NMeD]-Morpholide; lactam N-11), for which, in experiment [1], half-maximal inhibition (IC50) was put at 58.1 nM. Also, the “HRAS/KRAS (ratio of KD value for HRAS to KD value for KRAS)” value in experiment [2] is “C (A compound having a KD ratio of 0.1 or more and less than 3 is denoted as C)”. The “NRAS/KRAS (ratio of KD value for NRAS to KD value for KRAS)” value in experiment [3] was “B (a compound having 3 or more and less than 10 is denoted as B)”.

On to `CCC(CC)[C@H]1C(=O)N(C)[C@H](C(=O)N(C)C)CC(=O)N(C)[C@@H](COC)C(=O)N[C@@H]([C@@H](C)CC)C(=O)N(C)CC(=O)N(C)[C@H]2C/C=C\CCN(C2=O)[C@@H](Cc2ccc(C)cc2)C(=O)N(C)CC(=O)N[C@@H](CCc2ccc(Cl)c(Cl)c2)C(=O)N2C[C@H](OC3CCC3)C[C@H]2C(=O)N(C)C2(CC(C)(C)C2)C(=O)N1C` [PP2816], for which the half-maximal inhibitory concentration (IC50) in experiment [1] worked out at 22.8 nM. Moreover, in experiment [2], the “HRAS/KRAS (ratio of KD value with respect to GDP-bound HRAS wild-type protein to KD value with respect to KRAS)” value is “A (a compound having 10 or more and less than 20 is denoted as A)”. In addition, the “NRAS/KRAS (ratio of KD value with respect to GDP-bound NRAS wild-type protein to KD value with respect to KRAS)” value in experiment [3] is given as “AA (a compound having 20 or more is denoted as AA)”.
